The values below come from paper PMC12320299 (Chemical Science, 2025).

Where only a bound is given, the exact number is not on record here.

This data set in a line: Total 101Ru content in tumour, organs and blood by ICP-MS. The class given is in vivo, BALB/c mice. The following applies: 4 h after last injection, 10 mg kg^−1 i.p. As for the experimental part:
Furthermore, tumour, organs and blood of the 1a-treated mice were collected 4 h after the last injection. […] Intraperitoneally administered compounds are primarily absorbed through the portal circulation, which can lead to a substantial liver exposure.[71] […] This paralleled earlier findings of other metal(arenes) in this tumour model.[72]
Animals. All experiments were carried out with male Balb/c mice according to the regulation of the Ethics Committee for the Care and Use of Laboratory Animals at the Medical University Vienna (BMWF-2022-0.770.291), the guidelines from the Austrian Animal Science Association and the Federation of European Laboratory Animal Science Associations (FELASA). The animals were kept in a pathogen-free conditions, controlled environment with 12 h light–dark cycle with ad libitum access to food and water. Every procedure was done in a laminar airflow […]
Treatment. CT-26 cells ([…] in 50 μL serum-free medium) were injected subcutaneously (s.c.) into the right flank of ten– to eleven-week-old male Balb/c mice. Three days after cell injection, all compounds (dissolved in 10% DMSO in water) were administered […]
1b/2b. Regarding anticancer activity experiments, mice were treated on 5 consecutive days over 2 weeks. Four hours after the last treatment 1a-treated mice were sacrificed and analysed for ruthenium levels in tissue via ICP-MS measurements. […]
Missing data points were imputed. Permutation-based FDR was set to 0.05 and S0 = 0.1 for multi-parameter corrected significance testing of protein regulation. […]
Resources (Version 6.8)13 and STRING (Version 10.0).14
Additionally, statistical analysis of protein regulations from the in vivo samples was performed using the LIMMA R-package.15 P-values where adjusted according to Benjamini-Hochberg16 and a gene set variation analysis was performed (GSVA).17 Protein Sets where constructed using the molecular signature database.18
Total metal content in organs harvested from 1a-treated mice was determined by inductively coupled plasma mass spectrometry (ICP-MS) on an Agilent 7800 instrument and Agilent SPS 4 autosampler using the following parameters: RF power 1550, carrier gas (Ar) 1.08 L∙min-1, plasma gas (Ar) 15 L∙min-1, dwell time 0.1 s, 12 replicates with 100 sweeps. A […]
by Agilent MassHunter (Version C.01.04) software.
The lower limit of quantification of the method was 0.071 µg L-1. Organs, tumour and blood were digested with nitric acid (20% w/w) and diluted with ultrapure water to reach a final nitric acid concentration <4%.

Consider `CCC1=C2[O][Ru][O]C2(n2cccn2)c2ccccc2C1=O.Cc1ccc(C(C)C)cc1` (stereo not shown) [Compound 1a, [(3-ethyl-4-oxo-(pyrazolyl)-dihydronaphthalene)(cymene)ruthenium(II)]], for which the “101Ru content, blood clot” value is less than 0.4 mg/kg; the “101Ru content, blood serum” value was less than 0.4 mg/kg; the “101Ru content, liver” value is 10 ± 1 mg/kg; the “101Ru content, tumour” value amounted to 0.9 ± 0.7 mg/kg.
